Results as given in US20230406883A1, “COMPOUNDS AND THEIR USE IN TREATMENT OF TACHYKININ RECEPTOR MEDIATED DISORDERS” (Embark Biotech ApS, priority 2020, published 2023).
Where “and” joins values, the source holds several entries; their conditions need not be identical. Equal values may be shown once. Read-outs that look alike come from different tables or passages of the source. Numbered stars: 1 amine (or outer) side, 2 acyl side, 3 side chain; on linkers, the order of the positions; unused ones are H or OH. Square brackets hold non-standard residues; d marks the D form. Peptide text beside a SMILES is read from it. * marks the point of attachment. C18 diacid = O=C(O)CCCCCCCCCCCCCCCCC(=O)*; Phe(4-F) = N[C@@H](Cc1ccc(F)cc1)C(=O)O; γGlu = O=C(O)[C@H](CCC(=O)[*:2])N[*:1]; NMeL = CN[C@@H](CC(C)C)C(=O)O; hSer = N[C@@H](CCO)C(=O)O; Nle = CCCC[C@H](N)C(=O)O; AEEA = NCCOCCOCC(=O)O; Aib = CC(C)(N)C(=O)O

Legend:
hNK2R [1] = target: T1, hNK2R (Homo sapiens, UniProt P21452); assay: Hithunter cAMP assay (Gs-coupling) in transfected COS-7 cells; type: cell-based; details: for EC50 / hNK2R, cAMP Efficacy: COS-7 cells
T1 construct: host or cells: COS-7
T1 sequence (P21452 1-398): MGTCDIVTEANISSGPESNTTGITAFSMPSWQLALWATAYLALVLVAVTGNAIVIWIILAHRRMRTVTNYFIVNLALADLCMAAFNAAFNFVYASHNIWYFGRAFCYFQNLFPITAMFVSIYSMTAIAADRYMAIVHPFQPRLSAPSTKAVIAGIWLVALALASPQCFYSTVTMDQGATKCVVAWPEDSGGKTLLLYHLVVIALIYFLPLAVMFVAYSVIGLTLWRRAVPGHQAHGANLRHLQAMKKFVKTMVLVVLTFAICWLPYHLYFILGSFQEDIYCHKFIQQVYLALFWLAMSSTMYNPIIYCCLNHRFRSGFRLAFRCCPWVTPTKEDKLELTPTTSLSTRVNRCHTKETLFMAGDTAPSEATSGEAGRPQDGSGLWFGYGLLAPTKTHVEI
Procedure: (§1) As a secondary measure of agonist-induced G-protein coupled receptor (GPCR) activation cyclin adenosine monophosphate (cAMP) was measured by the Hithunter cAMP-assay from DiscoverX. Assays were carried out using COS-7 cells transiently transfected by calcium phosphate transfection with a vector pcDNA3.1(+) encoding one of the indicated receptors (Genscript). Briefly, DNA mixed with CaCl2 (2 M) and TE-buffer (10 mM Tris-HCl, 1 mM EDTA, pH 7.5) was dropwise added to 2×HBS (50 mM HEPES, 280 mM NaCl, 1.5 mM NaH2PO4, pH 7.2) and incubated for 45 min at room temperature (22±2° C.). The mixture and a final concentration of 100 μM Chloroquine were added to the cells and left to incubate for 5 hours at 37° C. under standard cell culture conditions (10% CO2) before changing medium to fresh maintenance medium.
The cAMP-assay takes advantage of the tachykinin receptors' ability to induce production of the cAMP second messenger upon agonist (ligand) binding on receptor expressing cells. Production of cAMP stems from receptor coupling to Gs-protein although coupling to Gq-protein (IP3-production) is considered the primary signalling mechanism by tachykinin receptors.
The assay was performed the day after transfection. Briefly, maintenance medium was aspirated, and plates were washed ×1 in HBSS before adding assay buffer (HBSS+1 mM IBMX), pre-incubated for 30 min at 37° C. followed by 15 min incubation with agonist (ligand) at 37° C. After incubation, plates were subjected to cell lysis and anti-cAMP-antibody incubation as described by manufacturer. Luminescence was measured with EnVision Multimode Plate Reader from Perkin Elmer.

hNK2R [2] = target: T1, hNK2R; assay: IP3 assay (inositol trisphosphate, 3H-myoinositol) in transiently transfected COS-7 cells; type: cell-based; details: COS-7 cells; for EC50: 0.2% ovalbumin buffer; for hNK2R, IP3 Efficacy: figure legends: percent of 10^-6 M NKA
How it was run: (§2)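 COS-7 cells were transiently transfected with receptor plasmid and labelled with ³H-myo-inositol. Cells were lysed in formic acid, and ³H-inositol phosphates were captured on SPA YSI beads and counted.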

hNK3R = target: T2, hNK3R (Homo sapiens, UniProt P29371); assay: as above; type: cell-based; details: for EC50: 0.2% ovalbumin buffer, read-out: hNK3, IP3 EC50
T2 construct: host or cells: COS-7
T2 sequence (P29371 1-465): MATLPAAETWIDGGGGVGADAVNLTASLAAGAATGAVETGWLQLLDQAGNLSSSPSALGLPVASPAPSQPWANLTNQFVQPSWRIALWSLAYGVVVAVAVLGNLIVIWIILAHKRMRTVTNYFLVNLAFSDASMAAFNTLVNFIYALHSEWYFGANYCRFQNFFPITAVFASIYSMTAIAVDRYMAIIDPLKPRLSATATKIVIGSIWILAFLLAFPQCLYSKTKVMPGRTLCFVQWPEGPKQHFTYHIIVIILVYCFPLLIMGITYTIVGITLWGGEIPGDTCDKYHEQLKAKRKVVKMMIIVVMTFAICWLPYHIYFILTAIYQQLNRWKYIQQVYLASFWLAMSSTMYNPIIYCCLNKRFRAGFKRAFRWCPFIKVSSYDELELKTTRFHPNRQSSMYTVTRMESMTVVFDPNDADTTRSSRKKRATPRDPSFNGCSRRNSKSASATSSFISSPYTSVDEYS
How it was run: as §2

hNK1R = target: T3, hNK1R (Homo sapiens, UniProt P25103); assay: as above; type: cell-based; details: for EC50: 0.2% ovalbumin buffer
T3 construct: host or cells: COS-7
T3 sequence (P25103 whole entry): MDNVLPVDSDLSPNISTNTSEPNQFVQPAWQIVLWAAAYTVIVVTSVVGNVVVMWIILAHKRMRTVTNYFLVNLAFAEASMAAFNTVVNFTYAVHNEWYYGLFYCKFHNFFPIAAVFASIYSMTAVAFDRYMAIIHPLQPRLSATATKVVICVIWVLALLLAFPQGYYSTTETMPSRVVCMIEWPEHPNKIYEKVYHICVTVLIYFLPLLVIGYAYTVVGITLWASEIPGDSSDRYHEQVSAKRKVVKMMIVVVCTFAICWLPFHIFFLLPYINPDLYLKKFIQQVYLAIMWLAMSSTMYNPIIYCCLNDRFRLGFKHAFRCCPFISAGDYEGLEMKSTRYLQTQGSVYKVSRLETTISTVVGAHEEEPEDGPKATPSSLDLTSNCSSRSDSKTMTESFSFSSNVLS
How it was run: as §2

hNK2R [3] = target: T1, hNK2R; assay: 3H-NKA competitive binding on transfected COS-7 cells; details: competition with 3H-NKA, 4 h at 4 C
Procedure: as §1, with “Assays” for “As a secondary measure of agonist-induced G-protein coupled receptor (GPCR) activation cyclin adenosine monophosphate (cAMP) was measured by the Hithunter cAMP-assay from DiscoverX. Assays”
The ^3H-NKA binding assay measures peptide-receptor binding by a competitive principle of receptor binding between radioactively labelled (3H) NKA (tracer) and synthesized peptide ligands on live cells expressing the receptor of interest. Assay solutions used: TKR buffer (50 mM Tris/HCl pH 7.5, 5 mM MnCl2, and 150 mM NaCl), wash buffer (TKR buffer+0.2% w/v OvAlb), binding buffer (wash buffer+0.1 mg/ml Bacitracin), and tracer solution (binding buffer+˜15000 cpm/well ^3H-tracer). The assay was performed on ice the day after transfection.
Briefly, maintenance medium was aspirated, and plates were washed ×1 in cold wash buffer before adding 100 μl cold binding buffer and placing at 4° C. to let plates cool. The cold plates were added indicated peptides (ligand) immediately followed by addition of cold tracer solution (˜15000 cpm/well). Plates were immediately moved to 4° C. and incubated for 4 hours. After incubation, binding was stopped by wash ×2 with cold wash buffer before adding 225 μl Ultima Gold XR. Plates were shaken at medium speed for approximately 30 min and left overnight at room temperature before counting the plates in a MicroBeta plate counter (Perkin Elmer).

[4] = COS-7 cells, figure legends: percent of 10^-6 M NKA

SMILES | EC50 (hNK2R [1]) [µM] | hNK2R, cAMP Efficacy (hNK2R [1]) [%] | EC50 (hNK2R [2]) [µM] | hNK2R, IP3 Efficacy (hNK2R [2]) | hNK3, IP3 Efficacy (hNK3R; [4]) | EC50 (hNK1R; COS-7 cells) | hNK1R, IP3 Efficacy (hNK1R; [4]) | EC50 (hNK2R [3]) [µM] | EC50 (hNK3R; COS-7 cells) [µM] | Gs activation (cAMP), in words (hNK2R [1]) | hNK3, IP3 Efficacy (hNK3R) [%] | hNK1R, IP3 Efficacy (hNK1R) [%]
COCC[C@H](NC(=O)[C@H](CC(C)C)NC(=O)C(C)(C)NC(=O)[C@@H](NC(=O)[C@H](Cc1ccc(O)cc1)NC(=O)[C@H](CCCCN)NC(=O)[C@H](CC(=O)O)NC(=O)COCCOCCNC(=O)COCCOCCNC(=O)CC[C@H](NC(=O)CCCCCCCCCCCCCCCCC(=O)O)C(=O)O)C(C)C)C(N)=O [compound 394, *Asp;Lys;Tyr;Val;Aib;Leu;Metox;NH2] ({C18 diacid-γGlu-AEEA-AEEA}-DKYV[Aib]L[hSer](Me)-NH2) | 0.306 | 100 | 0.005 | 90% | 0% | ~0.94 µM | 35% | ~0.108 | – | – | – | –
COCC[C@H](NC(=O)[C@H](CC(C)C)NC(=O)[C@@H](CO)NC(=O)[C@@H](NC(=O)[C@H](Cc1ccc(O)cc1)NC(=O)[C@H](CCCCN)NC(=O)[C@H](CC(=O)O)NC(=O)COCCOCCNC(=O)COCCOCCNC(=O)CC[C@H](NC(=O)CCCCCCCCCCCCCCCCC(=O)O)C(=O)O)C(C)C)C(N)=O [compound 396, *Asp;Lys;Tyr;Val;dSer;Leu;Metox;NH2] ({C18 diacid-γGlu-AEEA-AEEA}-DKYV[dS]L[hSer](Me)-NH2) | – | – | 0.02 | 92% | 0% | – | 0% | 0.316 | – | – | – | –
COCC[C@H](NC(=O)[C@H](CC(C)C)NC(=O)CNC(=O)[C@@H](NC(=O)[C@H](Cc1ccc(O)cc1)NC(=O)[C@H](CCCCN)NC(=O)[C@H](CC(=O)O)NC(=O)COCCOCCNC(=O)COCCOCCNC(=O)CC[C@H](NC(=O)CCCCCCCCCCCCCCCCC(=O)O)C(=O)O)C(C)C)C(N)=O [compound 393, *Asp;Lys;Tyr;Val;Gly;Leu;Metox;NH2] ({C18 diacid-γGlu-AEEA-AEEA}-DKYVGL[hSer](Me)-NH2) | – | – | 0.01 | 100% | 36% | 0.342 µM and 3.4 µM | 52% | 0.04 | – | – | 30 | 50

Now from value to compound, other results behind:

EC50 (hNK2R [1]) [µM] | hNK2R, cAMP Efficacy (hNK2R [1]) [%] | EC50 (hNK2R [2]) [µM] | hNK2R, IP3 Efficacy (hNK2R [2]) | hNK3, IP3 Efficacy (hNK3R; [4]) | EC50 (hNK1R; COS-7 cells) | hNK1R, IP3 Efficacy (hNK1R; [4]) | EC50 (hNK2R [3]) [µM] | EC50 (hNK3R; COS-7 cells) [µM] | Gs activation (cAMP), in words (hNK2R [1]) | SMILES | hNK3, IP3 Efficacy (hNK3R) [%] | hNK1R, IP3 Efficacy (hNK1R) [%]
~0.0013 | 50 | 0.0025 | 90% | 0% | – | 20% | 0.027 | – | – | CC(C)C[C@@H](C(=O)N[C@@H](Cc1ccccc1)C(N)=O)N(C)C(=O)CNC(=O)[C@@H](NC(=O)[C@H](Cc1ccc(O)cc1)NC(=O)[C@H](CCCCN)NC(=O)[C@H](CC(=O)O)NC(=O)COCCOCCNC(=O)COCCOCCNC(=O)CC[C@H](NC(=O)CCCCCCCCCCCCCCCCC(=O)O)C(=O)O)C(C)C [compound 353, *Asp;Lys;Tyr;Val;Gly;NmLeu;Phe;NH2] ({C18 diacid-γGlu-AEEA-AEEA}-DKYVG[NMeL]F-NH2) | – | –
0.02 | 100 | 0.012 | 120% | 50% | 0.02 µM | 100% | 0.041 | ~0.16 | – | CSCC[C@H](NC(=O)[C@H](CC(C)C)N(C)C(=O)CNC(=O)[C@@H](NC(=O)[C@H](Cc1ccc(O)cc1)NC(=O)[C@H](CCCCN)NC(=O)[C@H](CC(=O)O)NC(=O)COCCOCCNC(=O)COCCOCCNC(=O)CC[C@H](NC(=O)CCCCCCCCCCCCCCCCC(=O)O)C(=O)O)C(C)C)C(N)=O [compound 316, *Asp;Lys;Tyr;Val;Gly;NmLeu;Met;NH2] ({C18 diacid-γGlu-AEEA-AEEA}-DKYVG[NMeL]M-NH2) | – | –
0.054 | 80 | 0.0017 | 90% | 25% | ~0.25 µM | 40% | 0.076 | ~0.19 | – | CC(C)C[C@@H](C(=O)N[C@@H](Cc1ccc(F)cc1)C(N)=O)N(C)C(=O)CNC(=O)[C@@H](NC(=O)[C@H](Cc1ccc(O)cc1)NC(=O)[C@H](CCCCN)NC(=O)[C@H](CC(=O)O)NC(=O)COCCOCCNC(=O)COCCOCCNC(=O)CC[C@H](NC(=O)CCCCCCCCCCCCCCCCC(=O)O)C(=O)O)C(C)C [compound 369, *Asp;Lys;Tyr;Val;Gly;NmLeu;4-F-Phe;NH2] ({C18 diacid-γGlu-AEEA-AEEA}-DKYVG[NMeL][Phe(4-F)]-NH2) | – | –
– | 0 | 0.004 | 80% and 75% | 10% and 0% | ~26 µM and ~27 µM | 30% and 25% | 0.08 | ~3.8 | does not activate Gs | CCCC[C@H](NC(=O)[C@H](CC(C)C)N(C)C(=O)CNC(=O)[C@@H](NC(=O)[C@H](Cc1ccc(O)cc1)NC(=O)[C@H](CCCCN)NC(=O)[C@H](CCC(=O)O)NC(=O)COCCOCCNC(=O)COCCOCCNC(=O)CC[C@H](NC(=O)CCCCCCCCCCCCCCCCC(=O)O)C(=O)O)C(C)C)C(N)=O [compound 336, *Glu;Lys;Tyr;Val;Gly;NmLeu;Nle;NH2] ({C18 diacid-γGlu-AEEA-AEEA}-EKYVG[NMeL][Nle]-NH2) | – | –
– | – | 0.0054 | 72% and 70% | 0% | 0.205 µM and 0.2 µM | 52% and 30% | 0.025 | – | – | CCCC[C@H](NC(=O)[C@H](CC(C)C)NC(=O)CNC(=O)[C@@H](NC(=O)[C@H](Cc1ccc(O)cc1)NC(=O)[C@H](CCCCN)NC(=O)[C@H](CC(=O)O)NC(=O)COCCOCCNC(=O)COCCOCCNC(=O)CC[C@H](NC(=O)CCCCCCCCCCCCCCCCC(=O)O)C(=O)O)C(C)C)C(N)=O [compound 392, *Asp;Lys;Tyr;Val;Gly;Leu;Nle;NH2] ({C18 diacid-γGlu-AEEA-AEEA}-DKYVGL[Nle]-NH2) | – | –
